Measured values as given in patent US6410594B1, “Substituted cyclopentane compounds useful as neuraminidase inhibitors” (Biocryst Pharmaceuticals, Inc., priority 1996, dated 2002).
Where a name gives a salt, the structure may show the parent alone.

target: H1N9 Influenza Neuraminidase (Influenza A virus, UniProt P03472); test: biochemical; design: species or system influenza virus (H1N9 strain); conditions: 10 min at 37° C.; read-out: Inhibition of H1N9 Influenza Neuraminidase IC50
Sequence (P03472 83-470 limits assumed): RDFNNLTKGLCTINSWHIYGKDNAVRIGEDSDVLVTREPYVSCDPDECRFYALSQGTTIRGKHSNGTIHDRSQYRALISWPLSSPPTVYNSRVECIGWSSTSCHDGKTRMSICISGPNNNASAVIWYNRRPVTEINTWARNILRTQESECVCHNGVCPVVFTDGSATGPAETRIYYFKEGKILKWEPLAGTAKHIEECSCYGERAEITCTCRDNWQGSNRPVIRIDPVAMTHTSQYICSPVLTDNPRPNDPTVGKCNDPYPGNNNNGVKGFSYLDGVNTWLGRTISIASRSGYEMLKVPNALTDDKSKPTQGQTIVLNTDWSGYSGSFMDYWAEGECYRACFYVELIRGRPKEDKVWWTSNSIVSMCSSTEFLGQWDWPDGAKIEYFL

SMILES	IC50 [µM]
CC(=O)NC[C@@H]1C[C@H](C(=O)O)C[C@H]1NC(=N)N (relative stereo) [Example 3, t-3-{[(Amino)(imino)methyl]amino}-c-4-[(methylcarbonylamino)methyl]-cyclopentan-r-carboxylic acid trifluoroacetic acid [1:1.25]]	115
CC(=O)NC(C(O)C(O)CO)[C@H]1CC(C(=O)O)C[C@@H]1NC(=N)N (single isomer, unassigned; isomer a) [Example 12, 3β-{[(Amino)(imino)methyl]amino}-4α-[(1-methylcarbonylamino) (2,3,4-trihydroxy)butyl)butyl]-cyclonentancarboxylic acid trifluoroacetic acid (1:2) (isomer A at C-1, isomer A at C-6, isomer B at C-7)]	7.5
CC(=O)NC(COC(=O)C(F)(F)F)[C@H]1C[C@](O)(C(=O)O)C[C@@H]1NC(=N)N (single isomer, unassigned; isomer a) [Example 16, c-3-{[(Amino)(imino)methyl]amino}-t-1-hydroxy-t-4-[(1-methylcarbonylamino)(2-trifluoromethyl-carbonyloxy)ethyl]cyclopentan-r-carboxylic acid trifluoroacetic acid (4:1) (isomer A at C-6)]	70
CC(=O)NC(C(O)C(O)CO)[C@H]1CC(C(=O)O)C[C@@H]1N (single isomer, unassigned; isomer a) [Example 10, 3β-amino-4α-[(1-methylcarbonylamino)(2,3,4-trihydroxy)butyl]cyclopentancarboxylic acid trifluoroacetic acid (1:1) (isomer A at C-6)]	600
CON(C)CCC(=O)C(NC(C)=O)[C@H]1CC(C(=O)O)C[C@@H]1NC(=N)N (stereo partly drawn) [Example 20]	8
CC(=O)NC(C(O)C(O)CO)[C@H]1CC(C(=O)O)C[C@@H]1NC(=N)N (single isomer, unassigned; isomer b) [Example 15, 3β-{[(Amino)(imino)methyl]amino}-4α-[(1-methylcarbonylamino)(2,3,4-trihydroxy)butyl]cyclo-pentancarboxylic acid trifluoroacetic acid (5:13) (isomer B at C-6, isomer B at C-1, C-7 and/or C-8)]	50

tested on: not given; test: not given; conditions: not given

SMILES	melting point
CC(=O)NC(COC(=O)C(F)(F)F)[C@H]1C[C@](O)(C(=O)O)C[C@@H]1NC(=N)N (single isomer, unassigned; isomer a) (as salt: salt) [Example 16, c-3-{[(Amino)(imino)methyl]amino}-t-1-hydroxy-t-4-[(1-methylcarbonylamino)(2-trifluoromethyl-carbonyloxy)ethyl]cyclopentan-r-carboxylic acid trifluoroacetic acid (4:1) (isomer A at C-6)]	148 to 160 °C
CON(C)CCC(=O)C(NC(C)=O)[C@H]1CC(C(=O)O)C[C@@H]1NC(=N)N (stereo partly drawn) (as salt: salt) [Example 20]	189 to 192 °C
CC(=O)NC(C(O)C(O)CO)[C@H]1CC(C(=O)O)C[C@@H]1NC(=N)N (single isomer, unassigned; isomer a) (as salt: salt) [Example 12, 3β-{[(Amino)(imino)methyl]amino}-4α-[(1-methylcarbonylamino) (2,3,4-trihydroxy)butyl)butyl]-cyclonentancarboxylic acid trifluoroacetic acid (1:2) (isomer A at C-1, isomer A at C-6, isomer B at C-7)]	76 to 80 °C
CC(=O)NC(C(O)C(O)CO)[C@H]1CC(C(=O)O)C[C@@H]1NC(=N)N (single isomer, unassigned; isomer b) (as salt: salt) [Example 14, 3β-{[(Amino)(imino)methyl]amino}-4α-[(1-methylcarbonylamino)(2,3,4-trihydroxy)butyl]cyclo-pentancarboxylic acid trifluoroacetic acid (4:9) (isomer B at C-6, isomer A at C-1, C-7 and/or C-8)]	125 to 135 °C
CCC=CC(NC(C)=O)[C@H]1CC(C(=O)O)C[C@@H]1NC(=N)N (stereo partly drawn) (as salt: salt)	62 to 64 °C
CCN(CC)C(=O)C(NC(C)=O)[C@H]1C[C@@H](C(=O)O)C[C@@H]1NC(=N)N (single isomer, unassigned) (as salt: trifluoroacetic acid salt)	> 110 °C (dec.)
CCCN(CCC)C(=O)C(NC(C)=O)[C@H]1C[C@@](O)(C(=O)O)C[C@@H]1NC(=N)N (stereo partly drawn) (as salt: salt) [Example 23, t-3-{[(Amino)(imino)methyl]amino}-c-4-[(di-n-propylaminocarbonyl)(methylcarbonylamino)-methyl]-t-hydroxycyclpentan-r-carboxylic acid trifluoroacetic acid (4:5)]	153 to 155 °C
CC(=O)NC(COC(=O)C(F)(F)F)[C@H]1C[C@](O)(C(=O)O)C[C@@H]1NC(=N)N (single isomer, unassigned; isomer b) (as salt: salt) [Example 17, c-3-{[(Amino)(imino)methyl]amino}-t-1-hydroxy-t-4-[(1-methylcarbonylamino)(2-trifluoromethyl-carbonyloxy)ethyl]cyclopentan-r-carboxylic acid trifluoroacetic acid (4:3) (isomer B at C-6)]	210 to 220 °C
CC(=O)NC(C(O)C(O)CO)[C@H]1CC(C(=O)O)C[C@@H]1NC(=N)N (single isomer, unassigned; isomer b) (as salt: salt) [Example 15, 3β-{[(Amino)(imino)methyl]amino}-4α-[(1-methylcarbonylamino)(2,3,4-trihydroxy)butyl]cyclo-pentancarboxylic acid trifluoroacetic acid (5:13) (isomer B at C-6, isomer B at C-1, C-7 and/or C-8)]	140 to 145 °C
CC(=O)NC(C(O)C(O)CO)[C@H]1CC(C(=O)O)C[C@@H]1N (single isomer, unassigned) (as salt: salt)	58 to 62 °C
CC(=O)NC(C(O)C(O)CO)[C@H]1CC(C(=O)O)C[C@@H]1NC(=N)N (single isomer, unassigned; isomer b) (as salt: salt) [Example 13, 3β-{[(Amino)(imino)methyl]amino}-4α-[(1-methylcarbonylamino)(2,3,4-trihydroxy)butyl]-cyclopentancarboxylic acid trifluoroacetic acid (1:2) (isomer B at C-1, isomer A at C-6, isomer B at C-7)]	124 to 128 °C
CC(=O)NC(COCc1ccccc1)[C@H]1C[C@@](O)(C(=O)O)C[C@@H]1N (stereo partly drawn) (as salt: ammonium)	37 to 39 °C
CCCN(CCC)C(=O)C(NC(C)=O)[C@H]1C[C@@](O)(C(=O)O)C[C@@H]1N (single isomer, unassigned) (as salt: salt)	168 to 170 °C
CC(=O)NC(CO)[C@H]1C[C@@](O)(C(=O)O)C[C@@H]1N (stereo partly drawn) (as salt: ammonium)	83 to 85 °C
CC(=O)NC(CO)[C@H]1CC(C(=O)[O-])C[C@@H]1NC(=N)N.[Na+] (single isomer, unassigned; isomer b) (hydrate or solvate) [Example 7, Sodium 3β-{[(amino)(imino)methyl]amino}-4α-[(2-hydroxy)(1-methylcarbonylamino)ethyl]-cyclopentan-r-carboxylate:diethylether:hydrate (12:4:3), isomer B]	65 °C
